In patent US20180140679A1, “MODULATION OF AXL RECEPTOR ACTIVITY IN COMBINATION WITH CYTOREDUCTIVE THERAPY” (THE BOARD OF TRUSTEES OF THE LELAND STANFORD JUNIOR …, priority 2016, published 2018):

Assays:
[1] = system: 4T1 luciferase cells; assay type: in vivo; conditions: MYD1-72 Fc 1 mg/kg daily, TKIs 12.5 mg/kg twice daily; for reduction in lung metastases compared to vehicle treated mice: ex vivo bioluminescent imaging; for size of primary tumors: three weeks, vs control
From the text: In this model, cells orthotopically implanted in the mammary fat pad generate primary masses that metastasize to the lungs.
Comparison of MYD1-72 Fc with clinical Axl. TKIs There are currently no FDA approved drugs targeting Axl, though several small molecule kinase inhibitors are undergoing clinical trials. BerGenBio's BGB324 (previously Rigel's R428) is the most advanced of these compounds, and the first to be developed prospectively as an Axl inhibitor. […] Furthermore, since TKI's and biologics are fundamentally very different, as are their mechanisms of action, a direct comparison would provide valuable insights into the potential of distinct therapeutic intervention strategies. […] Cells were implanted orthotopically in the mammary fat pad, and primary tumors were allowed to establish prior to treatment. […] This dose for the TKIs was chosen as significant activity has been previously reported at equivalent concentrations.
(§1) Treatment was initiated four days post-surgery.

[2] = system: phosphorylation of Axl, Mer, Tyro3, and downstream Akt signaling in OVCAR8 cells; assay: Western blot of TAM receptor and Akt phosphorylation in OVCAR8 cells; assay type: cell-based, human
From the text: (§2) Cell lysates subjected to sodium dodecyl sulfate polyacrylamide gel electrophoresis followed by transfer to nitrocellulose membrane. The membranes were then probed with primary antibodies against total Axl (AF154, R&D Systems, INC., Minneapolis, Minn.), phospho-Axl (T702; #5724, CST, Danvers, Mass.), total Akt (#4691 CST, Danvers, Mass.), phosphor-Akt (#4060, CST, Danvers, Mass.), anti-MERTK (#ab52968, Abcam, Cambridge, Mass.), phospho-MERTK (#ab14921 Abcam, Cambridge, Mass.), anti-Tyro3 (#5585, CST, Danvers, Mass.), phospho-Tyro3 (#orb186274, Biorbyt LLC, Berkely, Calif.), Bcl-2 Family Antibody Sampler Kit (#9934, CST, Danvers, Mass.), anti-Chk2 (#sc-5278, Santa Cruz Biotech, INC., Santa Cruz, Calif.), anti-XRCC1 (#2735, CST, Danvers, Mass.), anti-γH2AX (Merck Millipore #05636, Darmstadt, Germany), anti-phospho-ATM (#ab81292, Abcam, Cambridge, Mass.), anti-ATM (#ab78, Abcam, Cambridge, Mass.), anti phospho-ATR (#2853, CST, Danvers, Mass.), anti-ATR (#2790, CST, Danvers, Mass.), anti-Phospho Chk1 (#12302, CST, Danvers, Mass.), anti-Phospho Chk2 (#2197, CST, Danvers, Mass.) and anti-RPA32 (#2208, CST, Danvers, Mass.) at 4° C. overnight. The blots were then washed and probed with HRP conjugated anti-goat (#sc-2020, Santa Cruz Biotech, INC., Santa Cruz, Calif.), or HRP conjugated anti-rabbit (#A16110, Thermo Fisher Scientific, Walthan, Mass.) as appropriate. The blots were developed with Bio-Rad Western C developing reagent (#170-5060 Bio-Rad, Hercules, Calif.) and visualized with Chemidoc digital imager (#1708280, Bio-Rad, Hercules, Calif.).

[3] = system: patients; conditions: recent phase II trial; cited from earlier work
[4] = system: LM-P orthotopic pancreatic cancer; assay: LM-P orthotopic pancreatic cancer model; conditions: immunohistochemistry
Procedure: LMP cells derived from the KRAS/p53 metastatic mouse model were implanted subcutaneously into the flanks of mice and allowed to grow until they reached ˜500 mm^3 in size.
To establish orthotopic tumors, mice harboring subcutaneous tumors were sacrificed and tumors were isolated and cut into small fragments. Laparotomies were then performed and a tumor fragment was secured to the tail of the pancreas.
All procedures involving animals and their care and use were approved by the Institutional Animal Care and Usage Committee of Stanford University. For all in vivo studies, six week old, female nude (nu/nu) mice (Jackson Laboratory, Bar Harbor, Me.) were used. In all studies, animals displaying signs of morbidity were removed from the study immediately. […] Treatment was initiated four days post-inoculation for both studies. […] BGB324 (Selleckchem LLC, Houston, Tex.) and Foretinib (MedChem, Monmouth Junction, N.J.). Small molecules were administered twice daily via oral gavage. […] The orthotropic LM-P pancreatic adenocarcinoma model (a gift from Dr. Edgar Engleman at Stanford University, Stanford, Calif.) was established as previously described. Briefly, 1×10^6 cells were injected subcutaneously into the flanks of nude mice and grown for 2-3 weeks until they reached 500 mm^3. […]

[5] = system: skov3.ip; assay: skov3.ip intraperitoneal ovarian cancer model; assay type: in vivo, mouse xenograft; conditions: MYD1-72 Fc 1 mg/kg daily, doxorubicin 2 mg/kg twice weekly, three weeks
From the text: At this time, several mice were sacrificed at random to ensure engraftment of diffuse metastatic disease, a hallmark of the human condition. […] After three weeks of treatment, mice were sacrificed and tumor burden was quantified both by counting the number of visible lesions, as well as excising and weighing all diseased tissue.
as §1

[6] = system: Axl and FLT3 phosphorylation in AML cells; assay: Western blot of Axl and FLT3 phosphorylation in AML cells; assay type: cell-based, human
From the text: as §2

[7] = target: T1, mouse Gas6 (mouse, UniProt Q61592 115-674, limits assumed); assay: KinExA equilibrium titration in solution, apparent Kd of the dimeric Fc fusion
T1 construct: Recombinant in KinExA (detected through a 6xHIS tag); also called mGas6
T1 sequence (looked up): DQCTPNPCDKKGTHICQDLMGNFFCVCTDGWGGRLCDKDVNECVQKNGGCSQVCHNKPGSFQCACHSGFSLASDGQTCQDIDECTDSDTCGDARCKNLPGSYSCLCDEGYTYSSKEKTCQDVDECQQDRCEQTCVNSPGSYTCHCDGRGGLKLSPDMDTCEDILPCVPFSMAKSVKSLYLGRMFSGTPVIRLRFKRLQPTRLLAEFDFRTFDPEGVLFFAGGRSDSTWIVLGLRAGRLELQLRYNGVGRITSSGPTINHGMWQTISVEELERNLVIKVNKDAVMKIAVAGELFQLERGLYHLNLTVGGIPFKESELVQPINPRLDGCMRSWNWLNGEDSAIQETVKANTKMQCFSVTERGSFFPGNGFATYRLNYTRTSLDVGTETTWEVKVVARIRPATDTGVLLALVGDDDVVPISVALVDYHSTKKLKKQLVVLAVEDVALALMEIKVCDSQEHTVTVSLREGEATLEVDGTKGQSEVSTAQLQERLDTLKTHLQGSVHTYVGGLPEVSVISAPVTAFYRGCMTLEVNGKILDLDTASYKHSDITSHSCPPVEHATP

Nc1nc(Nc2ccc3c(c2)CC[C@@H](N2CCCC2)CC3)nn1-c1cc2c(nn1)-c1ccccc1CCC2 [BGB324, reference compound]
reduction in lung metastases compared to vehicle treated mice [1]: 10% | size of primary tumors [1]: showed little effects | pAxl and pAkt levels [2]: short-term inhibition of pAxl but increased pAxl levels at later time points

COc1cc2c(Oc3ccc(NC(=O)C4(C(=O)Nc5ccc(F)cc5)CC4)cc3F)ccnc2cc1OCCCN1CCOCC1 [Foretinib]
reduction in lung metastases compared to vehicle treated mice [1]: 55% | size of primary tumors [1]: significantly reduced the size of primary tumors | pAxl and pAkt levels [2]: indiscriminately inhibited all TAM receptors | pMer and pTyro3 levels [2]: indiscriminately inhibited all TAM receptors | clinical efficacy [3]: failed to demonstrate efficacy | patients with treatment-related adverse events [3]: 91%

Nc1ccn([C@@H]2O[C@H](CO)[C@@H](O)C2(F)F)c(=O)n1 [Gemcitabine, reference compound]
Ki67 proliferation in primary tumor [4]: small, albeit significant decrease in proliferation

COc1cccc2c1C(=O)c1c(O)c3c(c(O)c1C2=O)C[C@@](O)(C(=O)CO)C[C@@H]3O[C@H]1C[C@H](N)[C@H](O)[C@H](C)O1 [doxorubicin, reference compound]
decrease in tumor burden (by weight) vs controls [5]: 91%

wildtype Axl Fc: wild-type Axl decoy receptor as Fc fusion
Axl and FLT3 phosphorylation [6]: inhibited Axl and FLT3 phosphorylation

B1: MYD1-Fc (Fc fusion)
chain: APRGTQAEESPFVSNPGNITGARGLTGTLRCQLQVQGEPPEVHWLRDGQILELADSTQTQVPLGEDEQGDWIVASQLRITSLQLSDTGQYQCLVFLGHQTFVSQPGYVRLEGLPYFLEEPEDRTVAANTPFNLSCQAQGPPEPVDLLWLQDAVPLATAPGHGPQRSLHVPGLNKTSSFSCEAHNAKGVTTSRTATITVLPQQPRNLHLVSRQPTELEVAWTPGLSGIYPLTHCTLQAVLSNDGMGIQAGEPDPPEEPLTSQASVPPHQLRLGSLHPHTPYHIRVACTSSQGPSSWTHWLPVETPEGVPLGPPENISATRNGSQAFVHWQEPRAPLQGTLLGYRLAYQGQDTPEVLMDIGLRQEVTLELQGDGSVSNLTVCVAAYTAAGDGPWSLPVPLEAWRPGQAQPVHQLVKEPSTPAFS
notes: Dimeric Fc fusion made in HEK293; MYD1 mutations deduced as MYD1-72 minus A72V; not shown: Fc domain
Kd [7]: 1.1 pM

B2: MYD1-72 Fc (Fc fusion)
chain: APRGTQAEESPFVSNPGNITGARGLTGTLRCQLQVQGEPPEVHWLRDGQILELVDSTQTQVPLGEDEQGDWIVASQLRITSLQLSDTGQYQCLVFLGHQTFVSQPGYVRLEGLPYFLEEPEDRTVAANTPFNLSCQAQGPPEPVDLLWLQDAVPLATAPGHGPQRSLHVPGLNKTSSFSCEAHNAKGVTTSRTATITVLPQQPRNLHLVSRQPTELEVAWTPGLSGIYPLTHCTLQAVLSNDGMGIQAGEPDPPEEPLTSQASVPPHQLRLGSLHPHTPYHIRVACTSSQGPSSWTHWLPVETPEGVPLGPPENISATRNGSQAFVHWQEPRAPLQGTLLGYRLAYQGQDTPEVLMDIGLRQEVTLELQGDGSVSNLTVCVAAYTAAGDGPWSLPVPLEAWRPGQAQPVHQLVKEPSTPAFS
notes: Dimeric Fc fusion made in HEK293; also called MYD-72 Fc; second generation Axl decoy receptor; not shown: Fc domain
Kd [7]: 0.14 pM
